Measurements from ChEMBL document CHEMBL1201862, “PubChem BioAssay data set” (2004).
pIC50: −log10 of the molar value. The source made the active and inactive calls.

Tests used:
Beta-galactosidase [1] = molecular target: T1, Beta-galactosidase (Escherichia coli, UniProt Q8VNN2); format: functional
[2] = molecular target: T2, Kappa-type opioid receptor (Homo sapiens, UniProt P41145); format: functional
[3] = C. albicans growth with fluconazole, confirmation, fluorescence, retest (AID 2467); format: functional, cell-based
[4] = molecular target: T3, Delta-type opioid receptor (Homo sapiens, UniProt P41143); test: HTS Image-Based Screen for Agonists of the DOR Receptor. [Related pubchem assays (depositor defined):AID1777, AID1786, AID2133]; format: functional
T3 sequence (P41143 whole entry): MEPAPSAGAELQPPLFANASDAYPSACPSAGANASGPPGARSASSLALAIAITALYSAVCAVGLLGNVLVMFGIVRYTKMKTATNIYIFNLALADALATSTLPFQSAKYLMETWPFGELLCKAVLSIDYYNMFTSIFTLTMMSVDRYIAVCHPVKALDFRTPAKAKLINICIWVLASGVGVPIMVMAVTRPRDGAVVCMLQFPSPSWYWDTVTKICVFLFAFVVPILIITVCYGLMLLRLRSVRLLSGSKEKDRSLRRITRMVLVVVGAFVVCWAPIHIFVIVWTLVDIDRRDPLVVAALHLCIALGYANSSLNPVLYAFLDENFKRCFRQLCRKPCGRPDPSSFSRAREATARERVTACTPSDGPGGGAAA

[5] = molecular target: T4, Ubiquitin-conjugating enzyme E2 N (Homo sapiens, UniProt P61088); format: functional
T4 sequence (P61088 whole entry): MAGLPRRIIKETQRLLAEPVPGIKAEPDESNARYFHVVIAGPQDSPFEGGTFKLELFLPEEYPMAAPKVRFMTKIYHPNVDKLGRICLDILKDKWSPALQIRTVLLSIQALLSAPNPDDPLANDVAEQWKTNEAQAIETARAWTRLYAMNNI

Streptococcus = test: Group A Streptococcus viability loss, dose response, counter-screen for streptokinase expression inhibitor project, luminescence, BacTiterGlo (AID 1915); format: functional, organism-based;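 further: potency for reduction of bacterial viability or growth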
Cytochrome P450 2C19 = Cytochrome P450 2C19 (Homo sapiens, UniProt P33261); test: Cytochrome panel assay with activity outcomes. Panel member name: p450-cyp2c19 Compounds with AC50 equal or less than 10 uM are considered active; format: functional; conditions: read-out: AC50
Cytochrome P450 2C19, sequence (P33261 whole entry): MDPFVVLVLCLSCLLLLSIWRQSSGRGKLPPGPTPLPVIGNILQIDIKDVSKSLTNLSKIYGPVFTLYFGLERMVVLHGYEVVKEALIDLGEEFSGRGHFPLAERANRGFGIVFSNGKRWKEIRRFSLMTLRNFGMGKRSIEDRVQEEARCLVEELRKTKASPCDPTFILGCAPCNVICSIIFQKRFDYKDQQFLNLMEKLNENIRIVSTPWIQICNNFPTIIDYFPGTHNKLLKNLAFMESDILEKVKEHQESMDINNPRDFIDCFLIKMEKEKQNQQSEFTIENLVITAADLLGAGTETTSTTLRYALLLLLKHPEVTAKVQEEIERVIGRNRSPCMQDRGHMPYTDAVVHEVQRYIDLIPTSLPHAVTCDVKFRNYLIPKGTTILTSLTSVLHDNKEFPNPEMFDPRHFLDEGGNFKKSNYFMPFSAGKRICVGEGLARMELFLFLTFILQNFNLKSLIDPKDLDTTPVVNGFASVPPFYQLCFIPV

[6] = HepG2 cell cytotoxicity, dose response, cytotoxicity control for Shn3 inhibitor project, CellTiter-Glo, cherry-picked (AID 624134); format: functional, cell-based
Beta-galactosidase [7] = molecular target: T1, Beta-galactosidase; test: PubChem AID 485352; format: functional
[8] = molecular target: T2, Kappa-type opioid receptor; format: functional; remark: listed apart in the source
[9] = test system: Streptococcus sp. 'group A'; test: growth inhibition of control SK(-) GAS strain, dose response, counter-screen for streptokinase expression inhibitor project, luminescence, kanamycin, BacTiterGlo, confirmation (AID 1900); format: functional, organism-based
[10] = Shn3 3'UTR reporter inhibitors, dose response, cell-based, Clone20 osteoblasts, firefly luciferase, cherry-picked (AID 624132); format: functional;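 further: firefly luciferase luminescence from reporter carrying the Shn3 3'UTR in osteoblasts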
[11] = control 3'UTR Renilla luciferase suppression, dose response, counter-screen for Shn3 inhibitor project, cell-based, Clone20-Shn3RL, cherry-picked (AID 624133); format: functional
Vero [12] = test: cells; format: functional, cell-based; conditions: Chlorocebus sabaeus
[13] = NIH-3T3 fibroblast cytotoxicity, dose response, cytotoxicity control, cell-based, fluorescence, Alamar Blue, secondary assay (AID 2327); format: functional;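 further: NIH-3T3 mouse fibroblasts cultured with fluconazole at 8 µg/mL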
[14] = molecular target: T5, Serine/threonine-protein phosphatase (Candida dubliniensis (strain CD36 / CBS 7987 / NCPF 3949 / NRRLY-17841) (Yeast), UniProt B9W6M3); test: calcineurin pathway inhibitors in yeast reporter, dose response, S. cerevisiae, CDRE-lacZ, luminescence, secondary (AID 2388); format: functional, cell-based;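 further: yeast reporter cells carrying a calcineurin-responsive lacZ construct stimulated with calcium chloride; luminescent beta-galactosidase reporter signal in whole cells rather than isolated phosphatase activity; potency for inhibition where a drop in reporter signal means calcineurin blockade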
T5 sequence (B9W6M3 whole entry): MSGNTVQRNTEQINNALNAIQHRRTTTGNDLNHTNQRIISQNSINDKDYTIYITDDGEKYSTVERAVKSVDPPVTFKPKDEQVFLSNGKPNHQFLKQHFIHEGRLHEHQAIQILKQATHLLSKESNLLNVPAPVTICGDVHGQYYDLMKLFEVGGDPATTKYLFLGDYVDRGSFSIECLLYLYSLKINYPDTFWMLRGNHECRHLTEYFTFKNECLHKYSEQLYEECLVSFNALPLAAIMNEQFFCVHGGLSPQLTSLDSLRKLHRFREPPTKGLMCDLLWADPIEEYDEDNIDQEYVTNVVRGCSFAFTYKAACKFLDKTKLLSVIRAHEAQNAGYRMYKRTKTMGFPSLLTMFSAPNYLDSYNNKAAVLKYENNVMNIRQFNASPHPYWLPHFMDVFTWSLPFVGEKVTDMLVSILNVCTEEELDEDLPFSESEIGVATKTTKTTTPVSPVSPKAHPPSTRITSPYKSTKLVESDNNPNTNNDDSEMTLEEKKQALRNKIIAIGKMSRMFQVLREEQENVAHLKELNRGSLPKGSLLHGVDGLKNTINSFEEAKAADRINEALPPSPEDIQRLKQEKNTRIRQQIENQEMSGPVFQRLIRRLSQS

[15] = molecular target: T3, Delta-type opioid receptor; test: HTS Image-Based Screen for Antagonists of the DOR Receptor. [Related pubchem assays (depositor defined):AID1777, AID1785, AID1786, AID2133]; format: functional
Vero [16] = test: cells; format: functional; conditions: Chlorocebus sabaeus
[17] = molecular target: ATP-dependent molecular chaperone HSP82 (Candida albicans (strain WO-1) (Yeast), UniProt C4YTQ8); test: loss of DOC-induced GRE-beta-galactosidase reporter signal, dose response, Hsp90 inhibitor project, S. cerevisiae, luminescence (AID 2400); format: functional, cell-based;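 further: beta-galactosidase luminescence from glucocorticoid response element reporter as proxy for Hsp90 function; inhibitor potency where signal loss means Hsp90 inhibition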
ATP-dependent molecular chaperone HSP82, sequence (C4YTQ8 whole entry): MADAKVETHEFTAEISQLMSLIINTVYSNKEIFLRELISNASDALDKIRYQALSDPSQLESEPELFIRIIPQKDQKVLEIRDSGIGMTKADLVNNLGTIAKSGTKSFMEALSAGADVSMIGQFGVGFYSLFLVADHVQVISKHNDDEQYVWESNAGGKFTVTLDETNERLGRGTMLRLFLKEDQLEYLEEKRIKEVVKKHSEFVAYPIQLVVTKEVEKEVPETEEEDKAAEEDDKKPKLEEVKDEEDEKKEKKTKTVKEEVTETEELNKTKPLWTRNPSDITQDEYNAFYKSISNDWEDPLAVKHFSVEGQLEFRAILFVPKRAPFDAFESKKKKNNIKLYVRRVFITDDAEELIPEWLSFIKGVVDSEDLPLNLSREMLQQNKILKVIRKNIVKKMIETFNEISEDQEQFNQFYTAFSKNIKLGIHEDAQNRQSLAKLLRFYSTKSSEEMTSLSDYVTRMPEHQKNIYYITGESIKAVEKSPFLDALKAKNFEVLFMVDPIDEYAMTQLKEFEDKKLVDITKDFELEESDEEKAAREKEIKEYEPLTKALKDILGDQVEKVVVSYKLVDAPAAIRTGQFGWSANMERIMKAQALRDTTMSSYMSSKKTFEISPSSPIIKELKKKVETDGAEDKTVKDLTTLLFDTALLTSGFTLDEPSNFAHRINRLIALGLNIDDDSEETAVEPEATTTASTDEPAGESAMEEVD

[18] = molecular target: T6, Type-1 angiotensin II receptor (Homo sapiens, UniProt P30556); test: AT1 receptor antagonists, dose response, selectivity assay for APJ receptor antagonist project, cell-based, uHTS hits (AID 463214); format: functional;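 further: antagonist potency against angiotensin II stimulated AT1 response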
T6 sequence (P30556 whole entry): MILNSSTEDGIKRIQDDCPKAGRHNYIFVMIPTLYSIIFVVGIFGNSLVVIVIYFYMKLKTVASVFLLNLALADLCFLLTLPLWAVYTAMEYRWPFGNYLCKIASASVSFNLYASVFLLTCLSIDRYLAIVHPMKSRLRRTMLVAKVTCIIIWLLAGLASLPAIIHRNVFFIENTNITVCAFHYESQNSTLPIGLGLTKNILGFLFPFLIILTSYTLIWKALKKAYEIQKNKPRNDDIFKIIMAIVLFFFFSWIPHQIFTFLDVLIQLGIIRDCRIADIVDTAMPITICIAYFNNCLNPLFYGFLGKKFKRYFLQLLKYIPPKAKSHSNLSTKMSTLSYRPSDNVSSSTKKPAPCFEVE

[19] = molecular target: T4, Ubiquitin-conjugating enzyme E2 N; format: functional; remark: listed apart in the source
Bcl-2-related protein A1 = molecular target: T7, Bcl-2-related protein A1 (Mus musculus, UniProt Q07440); format: functional;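 further: confirmatory dose–response counterscreen on Bfl-1, used to check hits from a UBC13 polyubiquitin inhibitor campaign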
T7 sequence (Q07440 whole entry): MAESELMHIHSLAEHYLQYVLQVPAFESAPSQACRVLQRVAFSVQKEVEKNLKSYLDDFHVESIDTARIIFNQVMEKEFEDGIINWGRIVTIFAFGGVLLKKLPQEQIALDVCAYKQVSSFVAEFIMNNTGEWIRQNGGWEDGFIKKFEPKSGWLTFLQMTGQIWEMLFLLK

Mu-type opioid receptor = Mu-type opioid receptor (Homo sapiens, UniProt P35372); test: HTS Image-Based Screen for Agonists of the MOR Receptor. [Related pubchem assays (depositor defined):AID1777, AID1785, AID1786, AID2133]; format: functional;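 further: imaging of beta-arrestin GFP recruitment into spots after receptor activation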
Mu-type opioid receptor, sequence (P35372 whole entry): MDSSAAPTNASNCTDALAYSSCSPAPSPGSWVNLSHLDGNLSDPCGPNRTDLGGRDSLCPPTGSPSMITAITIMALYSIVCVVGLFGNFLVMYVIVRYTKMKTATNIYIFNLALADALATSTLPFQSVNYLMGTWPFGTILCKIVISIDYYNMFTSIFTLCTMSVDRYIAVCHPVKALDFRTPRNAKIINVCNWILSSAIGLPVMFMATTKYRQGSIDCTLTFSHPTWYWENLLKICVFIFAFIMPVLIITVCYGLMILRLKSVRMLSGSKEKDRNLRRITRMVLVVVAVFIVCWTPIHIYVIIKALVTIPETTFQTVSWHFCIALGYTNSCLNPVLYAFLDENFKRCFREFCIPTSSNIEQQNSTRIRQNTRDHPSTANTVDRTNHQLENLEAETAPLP

[20] = molecular target: Lysine-specific demethylase 4C (Homo sapiens, UniProt Q9H3R0); test: GASC-1 (JMJD2C) histone demethylase inhibitors, dose response, biochemical, DELFIA europium, cherry-picked samples (AID 488835); format: functional
CAAX prenyl protease 1 = CAAX prenyl protease 1 (Saccharomyces cerevisiae S288c, UniProt P47154); test: Ste24 protease inhibitors, dose response, biochemical, S. cerevisiae, plate reader, cherry-pick (AID 488815)
CAAX prenyl protease 1, sequence (P47154 whole entry): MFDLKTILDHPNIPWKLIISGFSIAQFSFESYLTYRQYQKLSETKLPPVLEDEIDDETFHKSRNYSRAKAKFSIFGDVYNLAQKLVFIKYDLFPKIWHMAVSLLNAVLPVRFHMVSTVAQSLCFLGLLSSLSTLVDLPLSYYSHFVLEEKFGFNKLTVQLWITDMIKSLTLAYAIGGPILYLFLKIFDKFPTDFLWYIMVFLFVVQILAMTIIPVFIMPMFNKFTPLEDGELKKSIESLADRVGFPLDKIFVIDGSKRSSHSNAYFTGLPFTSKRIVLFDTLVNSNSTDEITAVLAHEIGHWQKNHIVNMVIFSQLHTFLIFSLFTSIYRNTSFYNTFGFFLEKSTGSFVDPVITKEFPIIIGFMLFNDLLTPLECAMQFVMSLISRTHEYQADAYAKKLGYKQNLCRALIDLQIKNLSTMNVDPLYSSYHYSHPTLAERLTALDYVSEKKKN

[21] = molecular target: Tyrosine-protein phosphatase non-receptor type 7 (Homo sapiens, UniProt P35236); format: functional
Tyrosine-protein phosphatase non-receptor type 7, sequence (P35236 whole entry): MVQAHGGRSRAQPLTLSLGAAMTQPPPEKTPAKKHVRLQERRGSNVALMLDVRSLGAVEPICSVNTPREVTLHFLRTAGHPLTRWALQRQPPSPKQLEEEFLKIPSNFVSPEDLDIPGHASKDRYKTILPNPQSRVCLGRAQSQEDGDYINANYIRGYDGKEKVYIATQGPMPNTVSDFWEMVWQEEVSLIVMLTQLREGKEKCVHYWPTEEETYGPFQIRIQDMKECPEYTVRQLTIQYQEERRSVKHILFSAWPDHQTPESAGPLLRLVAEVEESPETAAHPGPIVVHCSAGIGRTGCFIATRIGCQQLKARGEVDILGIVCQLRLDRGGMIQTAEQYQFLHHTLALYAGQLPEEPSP

[22] = molecular target: T8, Calpain-2 catalytic subunit (Sus scrofa, UniProt P43367); test: pig calpain II inhibitor potency, dose response, biochemical, fluorogenic peptide substrate (AID 1420); format: functional
T8 sequence (P43367 whole entry): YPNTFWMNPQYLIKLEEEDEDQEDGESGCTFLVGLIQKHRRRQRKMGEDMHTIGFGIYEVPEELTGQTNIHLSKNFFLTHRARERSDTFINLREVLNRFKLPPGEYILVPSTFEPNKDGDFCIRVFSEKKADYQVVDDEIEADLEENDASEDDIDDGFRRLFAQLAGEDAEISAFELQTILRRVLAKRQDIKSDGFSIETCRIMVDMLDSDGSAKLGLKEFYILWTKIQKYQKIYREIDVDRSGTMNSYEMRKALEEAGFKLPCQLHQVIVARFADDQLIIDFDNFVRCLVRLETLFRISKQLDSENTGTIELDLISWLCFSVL

[23] = molecular target: T9, Tyrosine-protein phosphatase non-receptor type 22 (Homo sapiens, UniProt Q9Y2R2); format: functional
T9 sequence (Q9Y2R2 whole entry): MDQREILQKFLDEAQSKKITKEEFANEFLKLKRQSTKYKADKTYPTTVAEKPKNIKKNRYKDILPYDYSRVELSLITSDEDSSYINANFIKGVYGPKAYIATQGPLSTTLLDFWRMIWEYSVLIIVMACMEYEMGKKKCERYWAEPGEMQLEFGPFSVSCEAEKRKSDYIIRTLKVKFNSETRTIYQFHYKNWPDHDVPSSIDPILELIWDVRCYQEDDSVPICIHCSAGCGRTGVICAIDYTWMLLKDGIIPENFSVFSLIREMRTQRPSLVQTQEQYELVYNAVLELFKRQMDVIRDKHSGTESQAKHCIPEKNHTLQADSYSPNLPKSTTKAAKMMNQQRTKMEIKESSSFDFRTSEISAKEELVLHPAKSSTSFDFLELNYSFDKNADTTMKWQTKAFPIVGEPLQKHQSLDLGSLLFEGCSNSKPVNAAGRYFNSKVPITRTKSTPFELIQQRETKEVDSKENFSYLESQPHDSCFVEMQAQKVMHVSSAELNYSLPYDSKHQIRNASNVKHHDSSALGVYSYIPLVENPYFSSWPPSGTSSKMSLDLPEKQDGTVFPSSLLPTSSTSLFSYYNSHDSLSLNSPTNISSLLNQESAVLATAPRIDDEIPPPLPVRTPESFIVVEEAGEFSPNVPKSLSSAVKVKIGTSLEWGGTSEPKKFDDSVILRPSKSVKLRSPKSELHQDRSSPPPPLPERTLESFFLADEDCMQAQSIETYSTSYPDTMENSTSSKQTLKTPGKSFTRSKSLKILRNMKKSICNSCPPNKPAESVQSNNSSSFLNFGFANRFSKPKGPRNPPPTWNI

[24] = molecular target: T9, Tyrosine-protein phosphatase non-receptor type 22; format: functional; remark: listed apart in the source

T2 sequence (P41145 whole entry): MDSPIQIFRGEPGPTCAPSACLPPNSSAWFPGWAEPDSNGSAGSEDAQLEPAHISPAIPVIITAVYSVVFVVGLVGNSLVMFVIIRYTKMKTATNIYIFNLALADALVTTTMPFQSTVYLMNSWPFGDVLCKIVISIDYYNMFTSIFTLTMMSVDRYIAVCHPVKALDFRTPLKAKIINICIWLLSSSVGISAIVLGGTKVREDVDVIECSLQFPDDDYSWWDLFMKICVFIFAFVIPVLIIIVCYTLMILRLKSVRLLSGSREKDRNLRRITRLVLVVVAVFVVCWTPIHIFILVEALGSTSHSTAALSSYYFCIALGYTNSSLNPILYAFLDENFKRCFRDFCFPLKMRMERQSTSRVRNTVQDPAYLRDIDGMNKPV
T1 sequence (Q8VNN2 whole entry): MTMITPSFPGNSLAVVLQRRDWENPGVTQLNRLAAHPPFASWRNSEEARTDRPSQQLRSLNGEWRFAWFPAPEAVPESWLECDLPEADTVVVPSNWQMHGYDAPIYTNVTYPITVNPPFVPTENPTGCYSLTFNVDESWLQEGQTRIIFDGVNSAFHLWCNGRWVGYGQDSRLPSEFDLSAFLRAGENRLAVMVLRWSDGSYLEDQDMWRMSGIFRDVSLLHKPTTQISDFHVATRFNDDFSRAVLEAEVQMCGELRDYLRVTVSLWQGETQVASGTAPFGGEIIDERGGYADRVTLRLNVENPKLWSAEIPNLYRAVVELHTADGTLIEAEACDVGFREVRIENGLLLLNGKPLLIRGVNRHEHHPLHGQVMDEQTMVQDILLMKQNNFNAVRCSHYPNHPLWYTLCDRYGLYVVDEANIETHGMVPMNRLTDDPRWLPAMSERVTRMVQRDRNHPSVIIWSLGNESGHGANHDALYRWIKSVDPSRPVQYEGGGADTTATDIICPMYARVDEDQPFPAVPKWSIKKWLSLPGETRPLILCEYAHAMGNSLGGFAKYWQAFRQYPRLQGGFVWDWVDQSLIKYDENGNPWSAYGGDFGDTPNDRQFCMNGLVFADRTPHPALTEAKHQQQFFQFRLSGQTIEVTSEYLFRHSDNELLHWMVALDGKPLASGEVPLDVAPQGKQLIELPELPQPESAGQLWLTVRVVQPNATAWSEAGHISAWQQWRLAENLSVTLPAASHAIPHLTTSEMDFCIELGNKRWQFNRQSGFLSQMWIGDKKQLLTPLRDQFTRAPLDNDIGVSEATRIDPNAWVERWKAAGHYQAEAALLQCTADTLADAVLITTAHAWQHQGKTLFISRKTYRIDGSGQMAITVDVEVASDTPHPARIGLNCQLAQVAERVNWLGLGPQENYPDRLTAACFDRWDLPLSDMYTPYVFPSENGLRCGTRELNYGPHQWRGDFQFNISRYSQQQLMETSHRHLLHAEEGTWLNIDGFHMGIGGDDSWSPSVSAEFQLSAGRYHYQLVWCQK

CCCOc1ccc(C(=O)NNC(=S)NC(=O)CC)cc1
< 4.49: pIC50 [2]
inactive: EC50 (Beta-galactosidase [1]) > 31.5 µM | EC50 [4] > 32 µM | AC50 [6] > 70 µM | EC50 (Beta-galactosidase [7]) > 40 µM | EC50 [14] > 180 µM | IC50 [15] > 32 µM | IC50 (Bcl-2-related protein A1) > 20 µM | EC50 (Mu-type opioid receptor) > 32 µM
inconclusive: AC50 (Cytochrome P450 2C19) 20 µM
active: EC50 [3] 0.384 µM | IC50 [5] 7.86 µM | EC50 (Streptococcus) 2.48 µM | IC50 [8] 7.95 µM | EC50 [9] 0.612 µM | AC50 [10] 24.4 µM | AC50 [11] 4.18 µM | IC50 (Vero [12]) > 25 µM | EC50 [13] 35.1 µM | CC50 (Vero [16]) 21.3 µM | EC50 [17] 20.1 µM | IC50 [18] 7.14 µM | IC50 [19] 9.02 µM

COc1ccc(-c2nc(C#N)c(NCc3ccc(F)cc3)o2)cc1OC
active: AC50 [20] 59.4 µM

Cc1cc(N2CCOCC2)n2cc(-c3ccccc3)nc2n1
active: AC50 (CAAX prenyl protease 1) 38.6 µM

O=C(Nc1ccc(Cl)cc1)c1ccc(OC2CSC2)cc1
16.7 µM (not active): IC50 [22]
inactive: IC50 [21] > 79.4 µM | IC50 [23] > 79.4 µM | IC50 [24] > 79.4 µM
